Legend:
[1] = target: human TAPP1 C-terminal PH domain (residues 95 to 404), GST fusion (Homo sapiens, UniProt Q9HB21); assay: Protein-lipid overlay; format: binding; conditions: protein-lipid overlay (FIG. 2)
Procedure: (§1) FIG. 2. Phosphoinositide binding properties of the novel PH domains. The ability of the indicated GST fusion proteins to bind a variety of phosphoinositides was analysed using a protein-lipid overlay. Serial dilutions of the indicated phosphoinositides (100 pmol, 50 pmol, 25 pmol, 12.5 pmol, 6.3 pmol, 3.1 pmol and 1.6 pmol) were spotted onto a nitrocellulose membranes which were then incubated with the purified GST fusion proteins. The membranes were washed and the GST-fusion proteins bound to the membrane by virtue of their interaction with lipid were detected using a GST antibody. A representative of at least 3 separate experiments carried out is shown.
(§2) FIG. 4. Comparison of the phosphoinositide binding properties of the N-terminal and C-terminal PH domains of TAPP1 and TAPP2. The ability of wild type and mutant forms of full length (FL) and isolated N-terminal (NT) and C-terminal (CT) PH domains of TAPP1 and TAPP2 GST-fusion proteins to interact with phosphoinositides were analysed using a protein-lipid overlay. Serial dilutions of the indicated phosphoinositides (100 pmol, 50 pmol, 25 pmol, 12.5 pmol, 6.3 pmol, 3.1 pmol and 1.6 pmol) were spotted onto a nitrocellulose membrane which was then incubated with the indicated purified GST fusion proteins. The membranes were washed and the GST-fusion proteins bound to the membrane by virtue of their interactions with lipid were detected using a GST antibody. A representative experiment of three is shown. The isolated N-terminal PH domain of human TAPP1 comprises residues 1 to 147, the isolated C-terminal PH domain of human TAPP1 comprises residues 95 to 404, the isolated N-terminal PH domain of mouse TAPP2 comprises residues 1 to 131 and the isolated C-terminal PH of mouse TAPP2 comprises residues 174 to 425.
(§3) Protein-Lipid overlay. To assess the phosphoinositide binding properties of each PH domain, a protein-lipid overlay assay was performed using the GST fusion proteins as described previously. […] The membrane was blocked in 3% (by mass) fatty acid-free BSA in TBST (50 mM Tris/HCl pH 7.5, 150 mM NaCl and 0.1% Tween-20 (by vol) for lh. The membrane was then incubated overnight at 4° C. with gentle agitation in the same solution containing 0.2 μg/ml of the indicated GST fusion protein. The membranes were washed 6 times over 30 min in TBST and then incubated for 1 h with 1/1000 dilution of anti-GST monoclonal antibody (Sigma). The membranes were washed as before, then incubated for 1 h with 1/5000 dilution of anti-mouse-HRP conjugate (Pierce). Finally, the membranes were washed 12 times over 1 h in TBST and the GST-fusion protein bound to the membrane by virtue of its interaction with phospholipid was detected by enhanced chemiluminescence.

[2] = target: T1, mouse TAPP2 C-terminal PH domain (residues 174 to 425), GST fusion (Mus musculus, UniProt Q9ERS5); assay: Protein-lipid overlay; format: binding; conditions: protein-lipid overlay (FIG. 2)
T1 construct: made in house; host or cells: human embryonic kidney 293 cells (pEBG-2T)
Procedure: as §1, §2, §3

[3] = target: human TAPP1 C-terminal PH domain, mutant R212L (Arg212 to Leu), GST fusion (Homo sapiens, UniProt Q9HB21, R211L); assay: Protein-lipid overlay; format: binding; conditions: FIG. 4B
Procedure: as §2
(§4) Protein-Lipid overlay. To assess the phosphoinositide binding properties of each PH domain, a protein-lipid overlay assay was performed using the GST fusion proteins as described previously. Briefly, 1 μl of lipid solution containing 1-100 pmol of phospholipids dissolved in a mixture of choroform:methanol:water (1:2:0.8) was spotted onto Hybond-C extra membrane and allowed to dry at room temperature for 1 h. The membrane was blocked in 3% (by mass) fatty acid-free BSA in TBST (50 mM Tris/HCl pH 7.5, 150 mM NaCl and 0.1% Tween-20 (by vol) for lh. The membrane was then incubated overnight at 4° C. with gentle agitation in the same solution containing 0.2 μg/ml of the indicated GST fusion protein. The membranes were washed 6 times over 30 min in TBST and then incubated for 1 h with 1/1000 dilution of anti-GST monoclonal antibody (Sigma). The membranes were washed as before, then incubated for 1 h with 1/5000 dilution of anti-mouse-HRP conjugate (Pierce). Finally, the membranes were washed 12 times over 1 h in TBST and the GST-fusion protein bound to the membrane by virtue of its interaction with phospholipid was detected by enhanced chemiluminescence.

[4] = target: human TAPP1 C-terminal PH domain, mutant W281L (Trp281 to Leu), GST fusion (Homo sapiens, UniProt Q9HB21, W280L); assay: Protein-lipid overlay; format: binding; conditions: FIG. 4B
Procedure: as §2, §4

[5] = target: human TAPP1, full length, mutant R212L (Arg212 to Leu), GST fusion (Homo sapiens, UniProt Q9HB21, R211L); assay: Protein-lipid overlay; format: binding; conditions: FIG. 4B
Procedure: as §2, §4

[6] = target: human TAPP1, full length, mutant R28L (Arg28 to Leu), GST fusion (Homo sapiens, UniProt Q9HB21, R28L); assay: Protein-lipid overlay; format: binding; conditions: FIG. 4B
Procedure: as §2, §4

[7] = target: human TAPP1, full length, wild type, GST fusion (Homo sapiens, UniProt Q9HB21); assay: Protein-lipid overlay; format: binding; conditions: FIG. 4A and Table 2
Procedure: as §2, §4

[8] = target: mouse TAPP2, full length, wild type, GST fusion (Mus musculus, UniProt Q9ERS5); assay: Protein-lipid overlay; format: binding; conditions: FIG. 4C and Table 2
Procedure: as §2, §4

GST-DAPP1 = conditions: control; cited from earlier work

Sequence of human TAPP1 C-terminal PH domain, mutant R212L (Arg212 to Leu), GST fusion (Q9HB21 95-404 R211L): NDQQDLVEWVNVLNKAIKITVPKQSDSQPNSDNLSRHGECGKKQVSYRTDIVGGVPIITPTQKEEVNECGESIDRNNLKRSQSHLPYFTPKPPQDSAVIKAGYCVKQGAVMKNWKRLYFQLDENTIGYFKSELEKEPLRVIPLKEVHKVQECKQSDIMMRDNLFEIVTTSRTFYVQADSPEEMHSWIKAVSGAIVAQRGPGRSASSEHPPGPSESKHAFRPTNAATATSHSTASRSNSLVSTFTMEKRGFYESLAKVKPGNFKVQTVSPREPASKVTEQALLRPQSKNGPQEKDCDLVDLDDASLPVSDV
Sequence of human TAPP1 C-terminal PH domain, mutant W281L (Trp281 to Leu), GST fusion (Q9HB21 95-404 W280L): as the sequence (Q9HB21 95-404 R211L) above, with L117R, W186L counted along it
Sequence of human TAPP1, full length, mutant R28L (Arg28 to Leu), GST fusion (Q9HB21 whole entry R28L, the tested form may be a part): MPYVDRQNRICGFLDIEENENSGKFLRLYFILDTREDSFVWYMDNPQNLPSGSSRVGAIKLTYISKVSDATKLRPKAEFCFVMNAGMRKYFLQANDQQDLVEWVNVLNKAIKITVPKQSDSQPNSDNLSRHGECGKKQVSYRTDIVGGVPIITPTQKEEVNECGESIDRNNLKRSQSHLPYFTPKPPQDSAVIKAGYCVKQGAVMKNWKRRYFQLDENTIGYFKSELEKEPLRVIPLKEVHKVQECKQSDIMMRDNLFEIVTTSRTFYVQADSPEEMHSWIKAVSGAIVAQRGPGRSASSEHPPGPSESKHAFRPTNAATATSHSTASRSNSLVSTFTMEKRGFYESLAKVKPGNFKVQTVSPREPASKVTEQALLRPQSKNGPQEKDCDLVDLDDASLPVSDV
Sequence of human TAPP1, full length, mutant R212L (Arg212 to Leu), GST fusion (Q9HB21 whole entry R211L, the tested form may be a part): as the sequence (Q9HB21 whole entry R28L, the tested form may be a part) above, with L28R, R211L counted along it
T1 sequence (Q9ERS5 174-425): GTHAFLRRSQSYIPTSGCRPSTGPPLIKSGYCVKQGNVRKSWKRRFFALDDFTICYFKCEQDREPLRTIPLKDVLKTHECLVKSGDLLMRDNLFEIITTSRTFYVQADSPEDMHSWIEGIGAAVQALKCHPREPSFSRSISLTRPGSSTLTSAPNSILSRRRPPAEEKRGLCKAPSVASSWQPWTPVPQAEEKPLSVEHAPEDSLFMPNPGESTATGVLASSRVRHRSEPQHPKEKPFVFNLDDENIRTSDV
Sequence of human TAPP1 C-terminal PH domain (residues 95 to 404), GST fusion (Q9HB21 95-404): as the sequence (Q9HB21 95-404 R211L) above, with L117R counted along it
Sequence of mouse TAPP2, full length, wild type, GST fusion (Q9ERS5 whole entry, the tested form may be a part): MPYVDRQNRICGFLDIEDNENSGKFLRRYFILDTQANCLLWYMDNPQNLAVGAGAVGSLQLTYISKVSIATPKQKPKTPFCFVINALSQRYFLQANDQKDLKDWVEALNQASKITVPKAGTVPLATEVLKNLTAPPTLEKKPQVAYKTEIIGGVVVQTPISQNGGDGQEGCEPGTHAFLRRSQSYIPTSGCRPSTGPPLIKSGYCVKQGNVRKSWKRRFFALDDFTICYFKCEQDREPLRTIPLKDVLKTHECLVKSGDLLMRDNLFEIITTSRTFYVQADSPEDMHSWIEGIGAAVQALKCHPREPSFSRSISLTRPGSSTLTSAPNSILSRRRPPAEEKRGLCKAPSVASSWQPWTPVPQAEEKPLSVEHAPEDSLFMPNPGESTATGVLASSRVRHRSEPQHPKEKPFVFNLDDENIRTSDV
Sequence of human TAPP1, full length, wild type, GST fusion (Q9HB21 whole entry, the tested form may be a part): as the sequence (Q9HB21 whole entry R28L, the tested form may be a part) above, with L28R counted along it

phosphoinositide binding [1]: interacted | phosphoinositide binding [2]: interacted | effect of mutation on interaction [3]: abolished the interaction | effect of mutation on interaction [4]: abolished the interaction | effect of mutation on interaction [5]: abolished the interaction | effect of mutation on interaction [6]: did not affect the interaction | phosphoinositide binding [7]: interacted specifically | phosphoinositide binding [8]: interacted specifically
Structure (SMILES): CCCCCCCCCCCCCCCC(=O)OC[C@H](COP(=O)(O)O[C@H]1[C@H](O)[C@@H](O)[C@H](OP(=O)(O)O)[C@@H](OP(=O)(O)O)[C@H]1O)OC(=O)CCCCCCCCCCCCCCC [PtdIns(3,4)P2]
phosphoinositide binding (GST-DAPP1): binds

Source: US20040106148A1, “Polypeptides” (priority 2000, published 2004)
